Patent US20120220554A1, “Combretastatins for Prevention of Posterior Capsule Opacification” (OXIGENE, INC., priority 2010, published 2012)

Legend:
[1] = test system: polymerized tubulin in primary bovine lens epithelial cells; experiment: Anti-tubulin immunofluorescence of primary lens epithelial cells on the lens capsule; type: cell-based; conditions: single 30 min treatment with 1 μM CA4P, at 30 min after start and up to 48 h after end of exposure (FIG. 5)
Description: (§1) Bovine eyes were obtained from Coast and County Meat Group (Felling, UK) on the day of culling and lenses were dissected out of the eyes under a sterile tissue culture hood as described below. After generous dousing in 70% ethanol, eyes were cut open using a major surgical blade (Swann-Morton, UK) via a single cut, parallel and posterior to the cornea-conjunctiva limit. The eye was then inverted and the vitreous removed. The lens was freed from the ciliary fibers and immediately placed anterior face down in a SYLGARD-covered (Dow Corning, Germany) well of a 12-well tissue culture plate (Greiner Bio-One, UK). The posterior side of the lens capsule was cut in a Y-shape fashion by a thin scalpel and the resulting flaps pulled back and pinned onto the SYLGARD. The fiber mass was removed by gently rolling it off the anterior lens capsule, thus leaving most of the primary lens epithelial cell layer attached onto the anterior lens capsule. This primary lens epithelial cell layer was then cultured on its original lens capsule at 37° C., 5% CO2, in 0% FCS-supplemented tissue culture.
[…] Immediately after the end of the CA4P exposure and 48 h after the end of the CA4P exposure, the presence of polymerized tubulin in the primary lens epithelial cell layers was investigated by immunofluorescence. […]

ERK 1/2 (p42 and p44) = experiment: Erk 1/2 phosphorylation immunoblot in primary lens epithelial cells; type: cell-based, bovine; conditions: primary cells after dissection; 30 min 1 mM CA4P; immediately and 1 h after end of exposure (FIG. 7)
Description: as §1, with “The fiber mass was removed by gently rolling it off the anterior lens capsule, thus leaving most of the primary lens epithelial cell layer attached onto the anterior lens capsule. This primary lens epithelial cell layer was then cultured on its original lens capsule at 37° C., 5% CO2, in 0% FCS-supplemented tissue culture.” left out
Immediately after dissection, primary lens epithelial cells were exposed for 30 min to 1 mM CA4P diluted in 0% FCS medium, after which they were returned to 0% FCS-supplemented medium. […] After total protein quantification of the extracts by Bicinchoninic Acid (BCA) assay (ThermoScientific, UK), 20 μg of extract were loaded per lane of a 12% acrylamide denaturing gel, which was run at 200V for 40 min, followed by blotting onto a nitrocellulose membrane at 0.8 mA/cm^2 for 2 h and blocking in either milk (Erk 1/2) or BSA (GAPDH) in TTBS (0.2% Tween (vol/vol), 150 mM NaCl, 20 mM Tris.HCl pH 7.4) for 1 h at room temperature. […]

Phosphorylated p38 = Phosphorylated p38 level; type: cell-based, bovine; conditions: CA4P treatment (data not shown)
Protocol: Phospho-Erk ½ levels were elevated immediately after the end of CA4P exposure in both control and treated cells and decreased 1 h after the end of CA4P exposure in both control and treated cells (FIG. 7). […] Therefore, it could be hypothesized that, in primary cells, a general stress response due to dissection will mask CA4P's effect on Erk phosphorylation. Phosphorylated p38 and JNK levels were not affected by CA4P treatment (data not shown).

[2] = test system: Primary bovine lens epithelial cells; experiment: Primary bovine lens epithelial cells on the lens capsule, serum-free, continuous exposure: cell number and morphology; type: cell-based
Protocol: Primary bovine lens epithelial cells were cultured in serum-free conditions, survival factors being released from the lens capsule. Paclitaxel or combretastatin A-4 phosphate was added to the culture to a final concentration of 10 nM, 100 nM or 10 μM. Cell number was determined for each capsule at 48 h and 96 h after addition of the test agent. Two capsules were taken per treatment and cell numbers averaged after being expressed as a percentage of 48 h value. This indicates the increase/decrease in cell number within a 48 h time period (i.e. from 48 h to 96 h), normalized as a percentage. Independent T-test P value between CA4P control and 10 μM is 0.0002.
By light microscopy, CA4P has a dramatic effect upon cell morphology, retaining the cobblestone characteristic of the lens epithelium, when in the control cultures the lens cells have begun to trans-differentiate actinsm/desmin positive cells and migrate off the capsule. Pictures were taken from live primary bovine cells on the lens capsule with FujiFinepix (FIG. 3).

## COc1ccc(/C=C\c2cc(OC)c(OC)c(OC)c2)cc1OP(=O)(O)O [CA4P, combretastatin A-4 phosphate]
[1]
  polymerized tubulin (immunofluorescence): loss of polymerized tubulin
ERK 1/2 (p42 and p44)
  Erk phosphorylation: not affected
Phosphorylated p38
  Phosphorylated p38 levels: not affected
[2]; 10 nM, 100 nM or 10 μM, cell number at 48 h and 96 h, over a 96 hour exposure (FIG. 1, FIG. 2)
  decline in cell number, compared with paclitaxel: more effective than paclitaxel at inducing a decline in cell number
[2]; CA4P 10 μM, live primary bovine cells on the lens capsule, 48 and 96 h (FIG. 3)
  cell morphology by light microscopy: show only epithelial sheets with the typical cobblestone appearance of the lens epithelium
